Laboratory results taken from PubChem BioAssay AID248 (DTP/NCI, 2004).
Inconclusive results and toxic doses are left out. No stated cut-off is given here; in the data, active means T/C of 150% or more; inactive means T/C below 125%.

Tested on: L1210 leukemia ip in BDF1 mice, survival T/C
Test: NCI In Vivo Anticancer Drug Screen. Data for tumor model L1210 Leukemia (intraperitoneal) in B6D2F1 (BDF1) mice
Conditions: endpoint: mean survival time, higher = longer survival
Method in brief: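 Each compound was tested against a transplantable tumor grown in mice. The endpoint was survival, with treated animals benchmarked against vehicle controls as a simple ratio.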

[1] = dose: 100.0 mg/kg/injection, schedule: Q04DX003 (ip), vehicle: saline
[2] = dose: 200.0 mg/kg/injection, schedule: Q04DX003 (ip), vehicle: saline
[3] = dose: 400.0 mg/kg/injection, schedule: Q04DX003 (ip), vehicle: saline
[4] = dose: 100.0 mg/kg/injection, schedule: Q01DX009 (ip), vehicle: saline with Tween-80
[5] = dose: 100.0 mg/kg/injection, schedule: Q04DX003 (ip), vehicle: saline with Tween-80
[6] = dose: 200.0 mg/kg/injection, schedule: Q01DX009 (ip), vehicle: saline with Tween-80
[7] = dose: 200.0 mg/kg/injection, schedule: Q04DX003 (ip), vehicle: saline with Tween-80
[8] = dose: 400.0 mg/kg/injection, schedule: Q01DX009 (ip), vehicle: saline with Tween-80
[9] = dose: 400.0 mg/kg/injection, schedule: Q04DX003 (ip), vehicle: saline with Tween-80
[10] = dose: 100.0 mg/kg/injection, schedule: Q01DX001 (ip), vehicle: carboxymethylcellulose (CMC)
[11] = dose: 200.0 mg/kg/injection, schedule: Q01DX001 (ip), vehicle: carboxymethylcellulose (CMC)
[12] = dose: 400.0 mg/kg/injection, schedule: Q01DX001 (ip), vehicle: carboxymethylcellulose (CMC)
[13] = dose: 100.0 mg/kg/injection, schedule: Q01DX001 (ip), vehicle: saline
[14] = dose: 200.0 mg/kg/injection, schedule: Q01DX001 (ip), vehicle: saline
[15] = dose: 50.0 mg/kg/injection, schedule: Q01DX001 (ip), vehicle: saline
[16] = dose: 100.0 mg/kg/injection, schedule: Q04DX003 (ip), vehicle: Klucel (hydroxypropylcellulose) (HPC)
[17] = dose: 200.0 mg/kg/injection, schedule: Q04DX003 (ip), vehicle: Klucel (hydroxypropylcellulose) (HPC)
[18] = dose: 400.0 mg/kg/injection, schedule: Q04DX003 (ip), vehicle: Klucel (hydroxypropylcellulose) (HPC)

Measured: T/C

CCOc1ccc2[nH]c(C)c(CC(=O)O)c2c1
inactive: dose: 100.0 mg/kg/injection, schedule: Q01DX001 (ip), vehicle: saline with Tween-80 97 % of control | dose: 200.0 mg/kg/injection, schedule: Q01DX001 (ip), vehicle: saline with Tween-80 103 % of control | dose: 400.0 mg/kg/injection, schedule: Q01DX001 (ip), vehicle: saline with Tween-80 97 % of control

CCN(CC)c1ccc(N=C2C=C(C(=O)Nc3cccc(Cl)c3)C(=O)c3ccccc32)c(C)c1
inactive: dose: 100.0 mg/kg/injection, schedule: Q01DX001 (ip), vehicle: other 92 % of control | dose: 200.0 mg/kg/injection, schedule: Q01DX001 (ip), vehicle: other 92 % of control | dose: 400.0 mg/kg/injection, schedule: Q01DX001 (ip), vehicle: other 96 % of control

COCC1OC(n2cc(C)c(=O)n(C)c2=O)CC1OC (configuration not stated)
inactive: dose: 50.0 mg/kg/injection, schedule: Q01DX005 (ip), vehicle: saline 102 % of control | dose: 100.0 mg/kg/injection, schedule: Q01DX005 (ip), vehicle: saline 98 % of control | dose: 200.0 mg/kg/injection, schedule: Q01DX005 (ip), vehicle: saline 100 % of control

CC1CCC(C(C)C)=C(C2CCCCC2)C1 (configuration not stated)
inactive: [1] 98 % of control | [2] 104 % of control | [3] 87 % of control

COc1ccccc1SC(=O)N(C)C
inactive: [4] 102 % of control | [5] 105 % of control | [6] 98 % of control | [7] 96 % of control | [8] 93 % of control | [9] 113 % of control

COc1cc(OC)cc(C(=O)NCCCl)c1
inactive: dose: 50.0 mg/kg/injection, schedule: Q01DX001 (ip), vehicle: carboxymethylcellulose (CMC) 101 % of control | [10] 110 % of control | [11] 107 % of control | [12] 107 % of control

C=CCSc1cccc(Cl)c1
inactive: [13] 101 % of control | [14] 96 % of control

COc1cc2c(c(O)c1OCC=C(C)C)c(=O)c1ccccc1n2C
inactive: [10] 93 % of control | [11] 95 % of control | [12] 88 % of control

COc1ccn(C2CCCO2)c(=O)n1 (configuration not stated)
inactive: [15] 101 % of control | [13] 101 % of control | [14] 104 % of control | dose: 400.0 mg/kg/injection, schedule: Q01DX001 (ip), vehicle: saline 104 % of control

O=CNC1(CO)CCCCC1
inactive: dose: 75.0 mg/kg/injection, schedule: Q01DX001 (ip), vehicle: saline 105 % of control | dose: 150.0 mg/kg/injection, schedule: Q01DX001 (ip), vehicle: saline 102 % of control | dose: 300.0 mg/kg/injection, schedule: Q01DX001 (ip), vehicle: saline 96 % of control

NC(=NCCCC(NC(=O)OCc1ccccc1)C(=O)NC1C(CO)OC(n2cnc3c(N)ncnc32)C1O)N[N+](=O)[O-] (configuration not stated)
inactive: [15] 90 % of control | [13] 95 % of control | [14] 93 % of control

CCOC(=O)CCC(NC(=O)c1ccccc1NC)C(=O)OCC (configuration not stated)
inactive: [4] 94 % of control | [6] 92 % of control | [8] 101 % of control

CCCN(CCC)C(=O)c1ccncc1
inactive: dose: 100.0 mg/kg/injection, schedule: Q01DX009 (ip), vehicle: saline 107 % of control | [1] 101 % of control | dose: 200.0 mg/kg/injection, schedule: Q01DX009 (ip), vehicle: saline 102 % of control | [2] 102 % of control | dose: 400.0 mg/kg/injection, schedule: Q01DX009 (ip), vehicle: saline 91 % of control | [3] 114 % of control

C[P+]1(c2ccccc2)C2C=CC=CC1C=C2 (configuration not stated)
inactive: dose: 5.0 mg/kg/injection, schedule: Q01DX001 (ip), vehicle: carboxymethylcellulose (CMC) 100 % of control | dose: 10.0 mg/kg/injection, schedule: Q01DX001 (ip), vehicle: carboxymethylcellulose (CMC) 92 % of control | dose: 20.0 mg/kg/injection, schedule: Q01DX001 (ip), vehicle: carboxymethylcellulose (CMC) 97 % of control

Nc1nc(N)nc(C(=O)Cc2ccccc2)n1
inactive: dose: 50.0 mg/kg/injection, schedule: Q01DX009 (ip), vehicle: saline with Tween-80 108 % of control | [4] 101 % of control | [6] 94 % of control

O=C1CCC(CC2CCCCC2)CC1
inactive: [5] 100 % of control | [7] 95 % of control

CC(C)N(CCO)CCO
inactive: [1] 100 % of control | [2] 102 % of control | [3] 100 % of control

CC(C)(Br)C(=O)C(Br)Br
inactive: [13] 106 % of control | [14] 102 % of control

O=C(Nc1ccc(Nc2ccccc2)cc1)c1ccc(F)cc1
inactive: dose: 100.0 mg/kg/injection, schedule: Q01DX009 (ip), vehicle: gum acacia 91 % of control | dose: 200.0 mg/kg/injection, schedule: Q01DX009 (ip), vehicle: gum acacia 96 % of control | dose: 400.0 mg/kg/injection, schedule: Q01DX009 (ip), vehicle: gum acacia 94 % of control

O=C(O)c1cccc(N=Cc2ccc3c(c2)CCC3)c1
inactive: [16] 94 % of control | [17] 94 % of control | [18] 95 % of control

O=[N+]([O-])c1ccc(F)c(Cl)c1F
inactive: dose: 10.0 mg/kg/injection, schedule: Q04DX003 (ip), vehicle: Klucel (hydroxypropylcellulose) (HPC) 103 % of control | dose: 20.0 mg/kg/injection, schedule: Q04DX003 (ip), vehicle: Klucel (hydroxypropylcellulose) (HPC) 106 % of control | dose: 40.0 mg/kg/injection, schedule: Q04DX003 (ip), vehicle: Klucel (hydroxypropylcellulose) (HPC) 99 % of control

CSC(c1ccccc1Cl)=[N+]1CCCCC1
inactive: [16] 104 % of control | [17] 88 % of control | [18] 93 % of control

O=C1c2ccccc2-c2cccc([N+](=O)[O-])c21
inactive: [10] 97 % of control | [11] 92 % of control | [12] 97 % of control

Nc1nc(N)c2c(n1)CCP(c1ccccc1)C2 (configuration not stated)
inactive: dose: 12.5 mg/kg/injection, schedule: Q04DX003 (ip), vehicle: saline with Tween-80 98 % of control | dose: 25.0 mg/kg/injection, schedule: Q04DX003 (ip), vehicle: saline with Tween-80 96 % of control | dose: 50.0 mg/kg/injection, schedule: Q04DX003 (ip), vehicle: saline with Tween-80 95 % of control

COC(=O)C1=CC(C(=O)OC)C(C(=O)OC)N2C=CSC2(C)C1 (configuration not stated)
inactive: [5] 96 % of control | [7] 96 % of control | [9] 93 % of control

C#CCCCCC#CCCCCCl
inactive: dose: 25.0 mg/kg/injection, schedule: Q01DX009 (ip), vehicle: acetone 104 % of control | dose: 50.0 mg/kg/injection, schedule: Q01DX009 (ip), vehicle: acetone 95 % of control | dose: 100.0 mg/kg/injection, schedule: Q01DX009 (ip), vehicle: acetone 87 % of control | dose: 100.0 mg/kg/injection, schedule: Q04DX003 (ip), vehicle: acetone 90 % of control | dose: 200.0 mg/kg/injection, schedule: Q04DX003 (ip), vehicle: acetone 93 % of control

O=C1c2ccccc2C(=O)N1c1cc(=O)[nH]c(=O)[nH]1
inactive: dose: 25.0 mg/kg/injection, schedule: Q04DX003 (ip), vehicle: Klucel (hydroxypropylcellulose) (HPC) 111 % of control | dose: 50.0 mg/kg/injection, schedule: Q04DX003 (ip), vehicle: Klucel (hydroxypropylcellulose) (HPC) 92 % of control
